How the values were obtained:
Assay type in all cases: cell-based
[1] = system: indoleamine 2,3-dioxygenase (IDO) activity in PHA-stimulated PBMC; assay: Example 16: IDO activity (kyn/trp) in PHA-stimulated human PBMC; conditions: PHA 10 μg/ml, 48 h
Procedure: (§1) PBMC were isolated from whole blood obtained from healthy donors, of whom informed consent was obtained that their donated blood unit was used for scientific purposes if not otherwise used. Separation of blood cells was performed using density centrifugation (Lymphoprep, Nycomed Pharma AS, Oslo, Norway). After isolation, PBMC were washed three times in phosphate buffered saline containing […] [0.5 mmol/L]. Cells were maintained in RPMI 1640 supplemented with 10% heat-inactivated fetal calf serum (Biochrom, Berlin, Germany), 1% of 200 mmol/L glutamine (Serve, Heidelberg, Germany) and 0.1% of gentamicin (50 mg/ml, Bio-Whittaker, Walkersville, Md.) in a humidified atmosphere containing 5% CO2 for 48 h. This procedure was observed earlier to reveal best reproducible results when applied for testing of anti-inflammatory effects of compounds or drugs (Widner et al., 1997). Average tryptophan content in the supplemented RPMI 1640 medium was 31.5 μmol/L. For each of the three experiments run in duplicates, PBMC were freshly prepared. Isolated PBMC were plated at a density of 1.5×10^6 cells/ml in supplemented RPMI 1640, preincubated for 30 minutes with or without BC preparations and stimulated or not with 10 μg/ml PHA for 48 h.
(§2) After incubation of cells for 48 h, supernatants were harvested by centrifugation and tryptophan and kynurenine concentrations were measured by high performance liquid chromatography (HPLC) using 3-nitro-L-tyrosine as internal standard (Widner and others 1997). To estimate IDO activity, the kynurenine to tryptophan ratio (kyn/trp) was calculated and expressed as μmol kynurenine/mmol tryptophan (Widner et al., 1997). Neopterin concentrations were determined by ELISA (BRAHMS, Hennigsdorf/Berlin, Germany) according to the manufacturer's instructions with a detection limit of 2 nmol/L.
(§3) For statistical analysis, the Statistical Package for the Social Sciences (version 14 SPSS, Chicago, Ill., USA) was used. […] P-values below 0.05 were considered to indicate significant differences.

[2] = system: neopterin formation in unstimulated PBMC; assay: Example 16: neopterin formation in unstimulated human PBMC; conditions: 48 h
Procedure: (§4) PBMC were isolated from whole blood obtained from healthy donors, of whom informed consent was obtained that their donated blood unit was used for scientific purposes if not otherwise used. Separation of blood cells was performed using density centrifugation (Lymphoprep, Nycomed Pharma AS, Oslo, Norway). After isolation, PBMC were washed three times in phosphate buffered saline containing 0.2% EDTA [0.5 mmol/L]. Cells were maintained in RPMI 1640 supplemented with 10% heat-inactivated fetal calf serum (Biochrom, Berlin, Germany), 1% of 200 mmol/L glutamine (Serve, Heidelberg, Germany) and 0.1% of gentamicin (50 mg/ml, Bio-Whittaker, Walkersville, Md.) in a humidified atmosphere containing 5% CO2 for 48 h. […]
as §2, with “nmol/L. […]” for “nmol/L.”

[3] = system: indoleamine 2,3-dioxygenase (IDO) activity in unstimulated PBMC; assay: Example 16: IDO activity (kyn/trp) in unstimulated human PBMC; conditions: 20 mg/ml, 48 h
Procedure: as §4
as §2, with “nmol/L. […]” for “nmol/L.”

[4] = system: neopterin formation in PHA-stimulated PBMC; assay: Example 16: neopterin formation in PHA-stimulated human PBMC; conditions: PHA 10 μg/ml, 48 h
Procedure: as §1, §2, §3

Substance: lactoferrin
- IDO activity (kyn/trp) as % of PHA control ([1]; 0.2 mg/ml): 34.0±9.7%
- neopterin formation as % of unstimulated control ([2]; 0.2 mg/ml): 125±2.8%
- neopterin formation as % of unstimulated control ([2]; 2 mg/ml): 132±4.1%
- IDO activity (kyn/trp) as % of unstimulated control [3]: 54.7±5.0%
- neopterin formation as % of PHA control ([4]; 2 mg/ml): 61.3±11.7%
- neopterin formation as % of PHA control ([4]; 20 mg/ml): 31.1±3.9%

Substance: phytohemagglutinin [phytohemagglutinin (PHA)]
- Kyn/trp ([1]; PBMC): 1312±459 μmol/mmol
- increase of IDO activity versus unstimulated PBMC ([1]; PBMC): approximately 47 fold
- kynurenine concentration in the supernatant ([1]; PBMC): 9.8 ± 1.3 µmol/L
- tryptophan content in the supernatant ([1]; PBMC): 8.2 ± 2.0 µmol/L
- increase of neopterin concentration versus unstimulated PBMC ([4]; PBMC): about 3.6 fold
- neopterin concentration in the supernatant ([4]; PBMC): 13.2 ± 3.6 nmol/L

Source: patent US8637075B2, “Colostrum composition” (Pharma GP ApS, priority 2008, dated 2014)
